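Interpolation was linear, between the two tested concentrations surrounding the appropriate level; five concentrations were tested over 48 hours in 96-well plates. GI50: concentration for 50% inhibition of growth. Definition used: TGI = concentration required for complete inhibition of growth.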
Tests used:
Experiment in all cases: DTP human tumour cell line panel, 48 h
CCRF-CEM leukemia = tested on: CCRF-CEM leukemia
COLO 205 colon = tested on: COLO 205 colon
MDA-MB-231 breast = tested on: MDA-MB-231 breast
HCC-2998 colon = tested on: HCC-2998 colon
SF-539 CNS = tested on: SF-539 CNS
NCI-H23 lung = tested on: NCI-H23 lung
SNB-75 CNS = tested on: SNB-75 CNS
UACC-257 melanoma = tested on: UACC-257 melanoma
IGROV1 ovarian = tested on: IGROV1 ovarian
HOP-92 NSCLC = tested on: HOP-92 NSCLC

## CC(C)C1(C)N=C(C(F)(F)F)c2cc(C(=O)C(F)(F)F)c3ccccc3c2N1 (configuration not stated)
CCRF-CEM leukemia
  TGI: > 100 µM
COLO 205 colon
  TGI: 15.8 µM
MDA-MB-231 breast
  TGI: 11.2 µM
HCC-2998 colon
  TGI: 11.9 µM
SF-539 CNS
  TGI: 20.8 µM
NCI-H23 lung
  TGI: 8.12 µM
SNB-75 CNS
  TGI: 7.96 µM
UACC-257 melanoma
  TGI: 19.5 µM
IGROV1 ovarian
  TGI: 3.28 µM

## CCc1n[nH]c(=O)n1/N=C/c1ccccc1Cl
CCRF-CEM leukemia
  TGI: > 100 µM
COLO 205 colon
  TGI: > 100 µM
MDA-MB-231 breast
  TGI: > 100 µM
HCC-2998 colon
  TGI: > 100 µM
SF-539 CNS
  TGI: > 100 µM
NCI-H23 lung
  TGI: > 100 µM
HOP-92 NSCLC
  TGI: > 100 µM
UACC-257 melanoma
  TGI: > 100 µM
IGROV1 ovarian
  TGI: > 100 µM

## NCCCNc1nc2ccccc2c2c(=O)c3cc(C(F)(F)F)ccc3sc12
MDA-MB-231 breast
  GI50: 1.4 µM
  TGI: 2.75 µM
SF-539 CNS
  GI50: 1.71 µM
  TGI: 3.16 µM
HOP-92 NSCLC
  GI50: 1.37 µM
  TGI: 2.85 µM
SNB-75 CNS
  GI50: 1.53 µM
  TGI: 2.96 µM

## CCNC1(c2cccc(C)c2)OC(C)(C)c2cccc3cccc1c23 (configuration not stated)
CCRF-CEM leukemia
  TGI: 26.4 µM
COLO 205 colon
  TGI: 34 µM
SF-539 CNS
  TGI: 34.9 µM
NCI-H23 lung
  TGI: 34 µM
HOP-92 NSCLC
  TGI: 22.4 µM
SNB-75 CNS
  TGI: 30 µM
UACC-257 melanoma
  TGI: 37.9 µM
IGROV1 ovarian
  TGI: 37.5 µM

## CCCc1cc(=O)oc2c3c(c4c(c12)OC(C)(C)C=C4)O[C@@H](C)[C@H](C)C3=O
CCRF-CEM leukemia
  TGI: 48.3 µM
COLO 205 colon
  TGI: 49.5 µM
MDA-MB-231 breast
  TGI: 33.2 µM
HCC-2998 colon
  TGI: 34.5 µM
SF-539 CNS
  TGI: 37.4 µM
NCI-H23 lung
  TGI: 38.4 µM
SNB-75 CNS
  TGI: 30.7 µM
UACC-257 melanoma
  TGI: 37.3 µM
IGROV1 ovarian
  TGI: 28.4 µM

## CCCN(CCCC(NC(C)=O)C(=O)NCc1ccccc1)C(=O)NC (configuration not stated)
CCRF-CEM leukemia
  TGI: > 100 µM
COLO 205 colon
  TGI: > 100 µM
HCC-2998 colon
  TGI: > 100 µM
SF-539 CNS
  TGI: > 100 µM
NCI-H23 lung
  TGI: > 100 µM
HOP-92 NSCLC
  TGI: > 100 µM
SNB-75 CNS
  TGI: 75.3 µM
UACC-257 melanoma
  TGI: > 100 µM
IGROV1 ovarian
  TGI: > 100 µM

## COc1ccc(C2SCC(=O)N2c2ccc(-n3c(-c4ccccc4)nc4ccccc4c3=O)cc2)cc1OC (configuration not stated)
CCRF-CEM leukemia
  TGI: > 100 µM
COLO 205 colon
  TGI: > 100 µM
MDA-MB-231 breast
  TGI: > 100 µM
HCC-2998 colon
  TGI: > 100 µM
SF-539 CNS
  TGI: > 100 µM
NCI-H23 lung
  TGI: > 100 µM
SNB-75 CNS
  TGI: 51.7 µM
UACC-257 melanoma
  TGI: > 100 µM
IGROV1 ovarian
  TGI: > 100 µM

## O=[N+]([O-])c1cccc2nc3ccccc3c(NCCc3cccc[n+]3[O-])c12
COLO 205 colon
  TGI: < 0.0168 µM
MDA-MB-231 breast
  TGI: 0.0538 µM
HCC-2998 colon
  TGI: < 0.01 µM
SF-539 CNS
  TGI: 0.194 µM
NCI-H23 lung
  TGI: 0.0661 µM
HOP-92 NSCLC
  TGI: < 0.0507 µM
UACC-257 melanoma
  TGI: 0.0647 µM

## Cn1c(=O)cc(NCc2ccc(Cl)cc2)[nH]c1=O
COLO 205 colon
  TGI: > 100 µM
MDA-MB-231 breast
  TGI: > 100 µM
HCC-2998 colon
  TGI: > 100 µM
SF-539 CNS
  TGI: > 100 µM
NCI-H23 lung
  TGI: > 100 µM
HOP-92 NSCLC
  TGI: 45 µM
SNB-75 CNS
  TGI: 84.5 µM
UACC-257 melanoma
  TGI: > 100 µM
IGROV1 ovarian
  TGI: > 100 µM

## COc1ccc(/C=C2\C[C@H]3[C@@H]4CCC5=C[C@@H](N6CCCC6)CC[C@]5(C)[C@H]4CC[C@]3(C)[C@H]2O)cc1
COLO 205 colon
  TGI: 3.54 µM
MDA-MB-231 breast
  TGI: 4.6 µM
HCC-2998 colon
  TGI: 3.27 µM
SF-539 CNS
  TGI: 5.71 µM
NCI-H23 lung
  TGI: 16.3 µM
HOP-92 NSCLC
  TGI: 9.51 µM
SNB-75 CNS
  TGI: 14.5 µM
UACC-257 melanoma
  TGI: 2.98 µM
IGROV1 ovarian
  TGI: 20 µM

## COC(=O)C1(Cc2ccc3c(c2)CCC3)Cc2ccc3c(c2C1O)CCC3 (configuration not stated)
CCRF-CEM leukemia
  TGI: > 100 µM
COLO 205 colon
  TGI: 25.6 µM
MDA-MB-231 breast
  TGI: 29.4 µM
HCC-2998 colon
  TGI: 30.9 µM
SF-539 CNS
  TGI: 47.4 µM
HOP-92 NSCLC
  TGI: 21.9 µM
SNB-75 CNS
  TGI: > 100 µM
UACC-257 melanoma
  TGI: 26.1 µM

## CC1CC[C@@]2(OC1)OC1C[C@H]3[C@@H]4C/C(=N\N(C)C)[C@@]5(O)CC(O)CC[C@]5(C)[C@H]4CC[C@]3(C)C1[C@@H]2C (some centres not stated)
CCRF-CEM leukemia
  TGI: > 100 µM
COLO 205 colon
  TGI: > 100 µM
MDA-MB-231 breast
  TGI: > 100 µM
HCC-2998 colon
  TGI: > 100 µM
SF-539 CNS
  TGI: > 100 µM
NCI-H23 lung
  TGI: > 100 µM
HOP-92 NSCLC
  TGI: > 100 µM
UACC-257 melanoma
  TGI: > 100 µM
IGROV1 ovarian
  TGI: > 100 µM

## CC(OC(=O)NCn1cc(-c2ccccc2)nn1)c1ccccc1 (configuration not stated)
CCRF-CEM leukemia
  TGI: > 100 µM
COLO 205 colon
  TGI: > 100 µM
MDA-MB-231 breast
  TGI: > 100 µM
HCC-2998 colon
  TGI: > 100 µM
SF-539 CNS
  TGI: > 100 µM
NCI-H23 lung
  TGI: 76.8 µM
HOP-92 NSCLC
  TGI: > 100 µM
UACC-257 melanoma
  TGI: > 100 µM
IGROV1 ovarian
  TGI: > 100 µM

## COc1nc(SC)nc2c1cnn2C1OC(C(O)CO)C(OC)C1O (configuration not stated)
CCRF-CEM leukemia
  TGI: > 100 µM
COLO 205 colon
  TGI: > 100 µM
HCC-2998 colon
  TGI: > 100 µM
SF-539 CNS
  TGI: > 100 µM
NCI-H23 lung
  TGI: > 100 µM
SNB-75 CNS
  TGI: > 100 µM
UACC-257 melanoma
  TGI: > 100 µM
IGROV1 ovarian
  TGI: > 100 µM

## O=C1NC(Cc2c[nH]c3ccccc23)C(=O)N2C(C3CCCCC3)c3[nH]c4ccccc4c3C[C@@H]12 (some centres not stated)
COLO 205 colon
  TGI: 34.9 µM
MDA-MB-231 breast
  TGI: 30.6 µM
NCI-H23 lung
  TGI: 51 µM
HOP-92 NSCLC
  TGI: 46.2 µM
UACC-257 melanoma
  TGI: 29 µM
IGROV1 ovarian
  TGI: 36.9 µM

## COC(=O)C(O)P(=O)(OC)OC (configuration not stated)
COLO 205 colon
  TGI: > 100 µM
MDA-MB-231 breast
  TGI: > 100 µM
NCI-H23 lung
  TGI: > 100 µM
HOP-92 NSCLC
  TGI: > 100 µM
UACC-257 melanoma
  TGI: > 100 µM
IGROV1 ovarian
  TGI: > 100 µM

## Nc1c(-c2nc3ccccc3s2)c2ccc([N+](=O)[O-])cc2c(=O)n1-c1cccc(C(=O)O)c1
CCRF-CEM leukemia
  TGI: 56.8 µM
COLO 205 colon
  TGI: > 100 µM
MDA-MB-231 breast
  TGI: 37.8 µM
HCC-2998 colon
  TGI: > 100 µM
NCI-H23 lung
  TGI: 92.8 µM
HOP-92 NSCLC
  TGI: 72.9 µM
SNB-75 CNS
  TGI: 85.4 µM
UACC-257 melanoma
  TGI: 61.9 µM

## Cc1ccc(S(=O)(=O)NN=C2CCCCCCCCCCC2)cc1
CCRF-CEM leukemia
  TGI: > 100 µM
COLO 205 colon
  TGI: > 100 µM
MDA-MB-231 breast
  TGI: > 100 µM
HCC-2998 colon
  TGI: > 100 µM
SF-539 CNS
  TGI: > 100 µM
NCI-H23 lung
  TGI: > 100 µM
HOP-92 NSCLC
  TGI: > 100 µM
UACC-257 melanoma
  TGI: > 100 µM
IGROV1 ovarian
  TGI: > 100 µM

## CC(=O)O/N=C/c1ncccc1OC(C)=O
CCRF-CEM leukemia
  TGI: > 100 µM
COLO 205 colon
  TGI: > 100 µM
SF-539 CNS
  TGI: > 100 µM
NCI-H23 lung
  TGI: > 100 µM
HOP-92 NSCLC
  TGI: > 100 µM
SNB-75 CNS
  TGI: > 100 µM
UACC-257 melanoma
  TGI: > 100 µM
IGROV1 ovarian
  TGI: > 100 µM

## CCOC(=O)c1c(C)c2c(n1C)CCc1cn[nH]c1-2
CCRF-CEM leukemia
  TGI: > 100 µM
COLO 205 colon
  TGI: > 100 µM
HCC-2998 colon
  TGI: > 100 µM
SF-539 CNS
  TGI: > 100 µM
NCI-H23 lung
  TGI: > 100 µM
HOP-92 NSCLC
  TGI: > 100 µM
SNB-75 CNS
  TGI: > 100 µM
UACC-257 melanoma
  TGI: > 100 µM
IGROV1 ovarian
  TGI: > 100 µM

## CCOc1ccc(/C(O)=C/c2nc3ccccc3nc2/C=C(\O)c2ccc(OCC)cc2)cc1
CCRF-CEM leukemia
  TGI: > 100 µM
COLO 205 colon
  TGI: > 100 µM
MDA-MB-231 breast
  TGI: > 100 µM
HCC-2998 colon
  TGI: > 100 µM
SF-539 CNS
  TGI: > 100 µM
NCI-H23 lung
  TGI: > 100 µM
HOP-92 NSCLC
  TGI: > 100 µM
UACC-257 melanoma
  TGI: > 100 µM
IGROV1 ovarian
  TGI: > 100 µM

## COc1cc(CCCOC(=O)/C=C/c2ccc(O)c(O)c2)cc(O)c1O
CCRF-CEM leukemia
  TGI: > 100 µM
COLO 205 colon
  TGI: > 100 µM
MDA-MB-231 breast
  TGI: 91.7 µM
HCC-2998 colon
  TGI: > 100 µM
SF-539 CNS
  TGI: 90.2 µM
NCI-H23 lung
  TGI: > 100 µM
SNB-75 CNS
  TGI: > 100 µM
UACC-257 melanoma
  TGI: > 100 µM
IGROV1 ovarian
  TGI: > 100 µM

## CCCc1c(OC)c(=O)c2c(OC)cc(OC)c3c4c(OC)cc(OC)c5c(=O)c(OC)c(CCC)c(c1c23)c54
COLO 205 colon
  TGI: 27.2 µM
MDA-MB-231 breast
  TGI: 18.3 µM
HCC-2998 colon
  TGI: 38.7 µM
SF-539 CNS
  TGI: 30.9 µM
NCI-H23 lung
  TGI: 29.5 µM
HOP-92 NSCLC
  TGI: 23.4 µM
SNB-75 CNS
  TGI: 36 µM
UACC-257 melanoma
  TGI: 46.6 µM
IGROV1 ovarian
  TGI: 34.8 µM

## CN(C)c1ccc(/C=C(\C#N)C(N)=C(C#N)C#N)cc1
CCRF-CEM leukemia
  TGI: > 100 µM
COLO 205 colon
  TGI: > 100 µM
MDA-MB-231 breast
  TGI: > 100 µM
HCC-2998 colon
  TGI: > 100 µM
SF-539 CNS
  TGI: > 100 µM
NCI-H23 lung
  TGI: > 100 µM
HOP-92 NSCLC
  TGI: > 100 µM
UACC-257 melanoma
  TGI: > 100 µM
IGROV1 ovarian
  TGI: > 100 µM

From PubChem BioAssay (NCI)
